Measured values: article PMC12679550 (ACS Chemical Neuroscience, 2025)
Like-named read-outs stand apart in the source and are kept apart here.

Legend:
α1AR [1] = biological target: T1, α1AR (Homo sapiens, UniProt P35348); assay: cell-based
T1 sequence (P35348 1-466): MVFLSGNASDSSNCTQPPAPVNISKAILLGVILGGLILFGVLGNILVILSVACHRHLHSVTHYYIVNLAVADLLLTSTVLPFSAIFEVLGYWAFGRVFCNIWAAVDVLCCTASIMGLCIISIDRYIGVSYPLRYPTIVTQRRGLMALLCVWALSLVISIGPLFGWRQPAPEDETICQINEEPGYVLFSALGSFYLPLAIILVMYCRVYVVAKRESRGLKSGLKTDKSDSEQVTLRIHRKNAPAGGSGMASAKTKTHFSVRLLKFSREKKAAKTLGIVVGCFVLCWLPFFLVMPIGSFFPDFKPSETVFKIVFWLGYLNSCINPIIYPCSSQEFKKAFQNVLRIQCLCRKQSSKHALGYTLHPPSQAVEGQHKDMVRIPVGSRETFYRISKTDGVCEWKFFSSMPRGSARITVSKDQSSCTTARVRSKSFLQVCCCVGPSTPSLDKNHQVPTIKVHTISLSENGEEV

human α1Rs = details: in vitro, literature, cited from earlier work
human α2Rs = details: in vitro, literature, cited from earlier work
β1 and β2 adrenoceptors = details: in vitro; literature; read-out: Affinity (Kd) at β1 and β2 adrenoceptors; cited from earlier work
α2AR [2] = biological target: T2, α2AR (Homo sapiens, UniProt P08913); details: α2AR-expressing CHO-K1 cells
T2 sequence (P08913 1-465): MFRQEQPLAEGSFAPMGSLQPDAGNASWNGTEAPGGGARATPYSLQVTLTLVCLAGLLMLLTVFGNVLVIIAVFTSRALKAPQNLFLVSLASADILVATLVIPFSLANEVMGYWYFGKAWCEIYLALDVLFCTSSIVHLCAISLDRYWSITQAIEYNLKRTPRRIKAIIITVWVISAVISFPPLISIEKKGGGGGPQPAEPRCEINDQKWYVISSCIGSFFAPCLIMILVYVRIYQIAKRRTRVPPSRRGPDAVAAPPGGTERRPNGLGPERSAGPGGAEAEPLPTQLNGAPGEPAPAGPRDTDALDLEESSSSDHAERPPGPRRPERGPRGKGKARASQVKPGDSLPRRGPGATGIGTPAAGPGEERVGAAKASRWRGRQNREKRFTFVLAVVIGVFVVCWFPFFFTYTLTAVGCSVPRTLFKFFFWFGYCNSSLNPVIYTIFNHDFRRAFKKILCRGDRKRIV

α2AR [3] = biological target: T2, α2AR; assay: cell-based
α1BR = biological target: T3, α1BR (Homo sapiens, UniProt P35368); assay: Eurofins Cerep radioligand binding screen; details: 10 μM
T3 construct: Eurofins Cerep; host or cells: cell membrane homogenates
T3 sequence (P35368 whole entry): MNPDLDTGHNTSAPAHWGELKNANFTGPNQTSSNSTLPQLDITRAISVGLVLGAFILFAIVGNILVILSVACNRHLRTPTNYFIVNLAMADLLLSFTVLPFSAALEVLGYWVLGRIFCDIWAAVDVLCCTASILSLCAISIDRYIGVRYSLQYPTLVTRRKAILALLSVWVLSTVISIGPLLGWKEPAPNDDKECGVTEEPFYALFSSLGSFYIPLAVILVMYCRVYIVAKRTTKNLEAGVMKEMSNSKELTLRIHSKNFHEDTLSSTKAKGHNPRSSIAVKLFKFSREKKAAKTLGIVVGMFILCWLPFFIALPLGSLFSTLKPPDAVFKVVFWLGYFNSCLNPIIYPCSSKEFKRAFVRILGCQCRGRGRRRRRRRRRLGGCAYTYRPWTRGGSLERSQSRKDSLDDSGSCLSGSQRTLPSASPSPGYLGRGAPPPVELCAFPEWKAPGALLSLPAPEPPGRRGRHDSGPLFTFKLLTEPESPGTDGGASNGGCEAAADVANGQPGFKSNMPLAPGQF
Description: (§1) The compounds were screened at each target once, in duplicate, at 100 nM and 10 μM. […] The assay was valid if the reliability criteria, K i or IC50 values within 1/2 Log of historical values, were met. Radioligand binding assay methods were as previously described with only minor modifications , (see table in Supplementary Figure S4 for radioligands, protein sources, and assay test conditions). Briefly, cell membrane homogenates were incubated with either an antagonist or agonist radioligand in the absence or presence of the test compound in a buffer. A specific unlabeled agonist or antagonist at the target determined nonspecific binding. Following incubation, the samples were filtered rapidly under vacuum through glass fiber filters presoaked in a buffer and rinsed several times with an ice-cold buffer using a 48-sample or 96-sample cell harvester. Using a scintillation cocktail, the filters were counted for radioactivity in a scintillation counter. Compound binding was calculated as a percent inhibition of the binding of the radioactively labeled ligand specific for each target. Preparatory methods for enzyme inhibition assays were similar to radioligand binding assays. These assays involved using a known substrate, stimulus, and/or tracer, and detection methods included LANCE, fluorimetry, photometry, luminescence, or scintillation counting (see table in Supplementary Figure S4). Results of the screening assays showing an inhibition or stimulation higher than 50% were designated “hits” and considered to represent significant effects of the test compounds.

α2BR = biological target: T4, α2BR (Homo sapiens, UniProt P18089); assay: Eurofins Cerep radioligand binding screen; details: 10 μM; also previously reported
T4 construct: Eurofins Cerep; host or cells: cell membrane homogenates
T4 sequence (P18089 whole entry): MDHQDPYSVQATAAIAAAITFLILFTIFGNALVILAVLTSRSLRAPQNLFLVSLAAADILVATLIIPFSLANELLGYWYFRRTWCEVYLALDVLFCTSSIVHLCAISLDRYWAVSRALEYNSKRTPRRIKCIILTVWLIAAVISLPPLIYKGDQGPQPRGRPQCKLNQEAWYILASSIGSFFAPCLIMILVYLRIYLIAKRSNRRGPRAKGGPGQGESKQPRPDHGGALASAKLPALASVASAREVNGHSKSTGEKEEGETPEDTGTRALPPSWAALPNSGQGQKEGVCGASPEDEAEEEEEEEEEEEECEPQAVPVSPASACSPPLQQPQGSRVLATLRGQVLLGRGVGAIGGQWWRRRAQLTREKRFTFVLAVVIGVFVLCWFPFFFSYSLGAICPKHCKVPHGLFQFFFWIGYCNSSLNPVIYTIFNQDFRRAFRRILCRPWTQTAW
Description: as §1

δ-opioid receptors = biological target: T5, δ-opioid receptors (Homo sapiens, UniProt P41143); assay: Eurofins Cerep radioligand binding screen; details: 10 μM
T5 construct: Eurofins Cerep; host or cells: cell membrane homogenates
T5 sequence (P41143 whole entry): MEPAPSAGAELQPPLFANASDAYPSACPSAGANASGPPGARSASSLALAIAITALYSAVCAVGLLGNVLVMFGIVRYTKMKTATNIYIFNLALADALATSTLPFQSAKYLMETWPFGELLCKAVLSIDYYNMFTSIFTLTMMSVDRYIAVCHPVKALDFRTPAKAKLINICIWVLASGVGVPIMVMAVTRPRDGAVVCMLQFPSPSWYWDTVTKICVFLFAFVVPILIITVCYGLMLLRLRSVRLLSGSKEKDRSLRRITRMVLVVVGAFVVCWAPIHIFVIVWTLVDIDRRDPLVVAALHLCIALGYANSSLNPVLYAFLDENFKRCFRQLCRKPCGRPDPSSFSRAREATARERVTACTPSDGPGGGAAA
Description: as §1

μ-opioid receptors = biological target: T6, μ-opioid receptors (Homo sapiens, UniProt P35372); assay: Eurofins Cerep radioligand binding screen; details: 10 μM
T6 construct: Eurofins Cerep; host or cells: cell membrane homogenates
T6 sequence (P35372 whole entry): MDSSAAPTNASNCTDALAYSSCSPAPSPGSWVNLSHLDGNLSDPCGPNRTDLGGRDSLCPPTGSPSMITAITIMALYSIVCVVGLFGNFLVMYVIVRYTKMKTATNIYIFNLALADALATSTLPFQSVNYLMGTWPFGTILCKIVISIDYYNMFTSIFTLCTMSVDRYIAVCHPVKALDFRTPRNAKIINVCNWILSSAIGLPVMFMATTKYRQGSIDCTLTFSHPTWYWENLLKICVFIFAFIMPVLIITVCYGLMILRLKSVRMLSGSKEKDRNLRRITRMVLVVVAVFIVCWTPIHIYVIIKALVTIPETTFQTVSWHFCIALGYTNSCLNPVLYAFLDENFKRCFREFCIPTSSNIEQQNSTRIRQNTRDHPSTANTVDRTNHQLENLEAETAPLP
Description: as §1

κ-opioid receptors = biological target: T7, κ-opioid receptors (Homo sapiens, UniProt P41145); assay: Eurofins Cerep radioligand binding screen; details: 10 μM
T7 construct: Eurofins Cerep; host or cells: cell membrane homogenates
T7 sequence (P41145 whole entry): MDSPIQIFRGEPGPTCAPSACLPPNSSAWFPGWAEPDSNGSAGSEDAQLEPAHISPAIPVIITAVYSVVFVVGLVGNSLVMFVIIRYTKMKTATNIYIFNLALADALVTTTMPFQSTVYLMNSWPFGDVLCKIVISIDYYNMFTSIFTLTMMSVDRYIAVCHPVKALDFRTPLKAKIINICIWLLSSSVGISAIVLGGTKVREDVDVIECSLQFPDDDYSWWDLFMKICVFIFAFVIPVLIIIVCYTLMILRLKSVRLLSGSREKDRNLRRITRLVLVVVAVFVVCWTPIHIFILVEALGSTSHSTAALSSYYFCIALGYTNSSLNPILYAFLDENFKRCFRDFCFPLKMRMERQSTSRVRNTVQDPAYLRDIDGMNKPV
Description: as §1

α1DR = biological target: T8, α1DR (Homo sapiens, UniProt P25100); assay: Eurofins Cerep radioligand binding screen; details: 10 μM
T8 construct: Eurofins Cerep; host or cells: cell membrane homogenates
T8 sequence (P25100 whole entry): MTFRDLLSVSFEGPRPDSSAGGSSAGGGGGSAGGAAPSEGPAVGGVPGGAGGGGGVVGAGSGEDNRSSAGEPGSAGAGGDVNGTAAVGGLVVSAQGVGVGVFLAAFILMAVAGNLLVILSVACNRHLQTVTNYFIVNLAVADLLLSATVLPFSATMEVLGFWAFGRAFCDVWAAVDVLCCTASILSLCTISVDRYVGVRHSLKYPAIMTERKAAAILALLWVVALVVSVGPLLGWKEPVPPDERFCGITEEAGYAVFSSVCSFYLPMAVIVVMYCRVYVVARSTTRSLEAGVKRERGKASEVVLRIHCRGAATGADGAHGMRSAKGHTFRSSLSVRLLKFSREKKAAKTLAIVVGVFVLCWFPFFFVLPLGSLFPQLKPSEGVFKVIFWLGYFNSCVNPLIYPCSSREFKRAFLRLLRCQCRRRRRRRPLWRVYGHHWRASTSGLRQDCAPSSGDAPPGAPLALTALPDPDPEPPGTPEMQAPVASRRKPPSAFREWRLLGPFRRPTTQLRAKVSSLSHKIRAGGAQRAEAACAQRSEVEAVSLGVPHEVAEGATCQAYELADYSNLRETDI
Description: as §1

α2AR [4] = biological target: T2, α2AR; assay: Eurofins Cerep radioligand binding screen; design: Eurofins Cerep; host or cells: cell membrane homogenates; details: 10 μM; also previously reported
Description: as §1

α1AR [5] = biological target: T1, α1AR; assay: Eurofins Cerep radioligand binding screen; design: Eurofins Cerep; host or cells: cell membrane homogenates; details: 10 μM
Description: as §1

any enzyme tested = assay: Eurofins Cerep enzyme inhibition screen, all enzymes tested; type: biochemical; details: 10 μM
Description: (§2) The compounds were screened at each target once, in duplicate, at 100 nM and 10 μM. […] The assay was valid if the reliability criteria, K i or IC50 values within 1/2 Log of historical values, were met. Radioligand binding assay methods were as previously described with only minor modifications , (see table in Supplementary Figure S4 for radioligands, protein sources, and assay test conditions). Briefly, cell membrane homogenates were incubated with either an antagonist or agonist radioligand in the absence or presence of the test compound in a buffer. A specific unlabeled agonist or antagonist at the target determined nonspecific binding. Following incubation, the samples were filtered rapidly under vacuum through glass fiber filters presoaked in a buffer and rinsed several times with an ice-cold buffer using a 48-sample or 96-sample cell harvester. Using a scintillation cocktail, the filters were counted for radioactivity in a scintillation counter. Compound binding was calculated as a percent inhibition of the binding of the radioactively labeled ligand specific for each target. Preparatory methods for enzyme inhibition assays were similar to radioligand binding assays. These assays involved using a known substrate, stimulus, and/or tracer, and detection methods included LANCE, fluorimetry, photometry, luminescence, or scintillation counting (see table in Supplementary Figure S4). […]

α2AR [6] = biological target: T2, α2AR; details: data not shown
rat α2AR [7] = biological target: T9, rat α2AR (Rattus norvegicus, UniProt P22909); details: agonist mode; CHO-K1 cells
T9 sequence (P22909 1-465): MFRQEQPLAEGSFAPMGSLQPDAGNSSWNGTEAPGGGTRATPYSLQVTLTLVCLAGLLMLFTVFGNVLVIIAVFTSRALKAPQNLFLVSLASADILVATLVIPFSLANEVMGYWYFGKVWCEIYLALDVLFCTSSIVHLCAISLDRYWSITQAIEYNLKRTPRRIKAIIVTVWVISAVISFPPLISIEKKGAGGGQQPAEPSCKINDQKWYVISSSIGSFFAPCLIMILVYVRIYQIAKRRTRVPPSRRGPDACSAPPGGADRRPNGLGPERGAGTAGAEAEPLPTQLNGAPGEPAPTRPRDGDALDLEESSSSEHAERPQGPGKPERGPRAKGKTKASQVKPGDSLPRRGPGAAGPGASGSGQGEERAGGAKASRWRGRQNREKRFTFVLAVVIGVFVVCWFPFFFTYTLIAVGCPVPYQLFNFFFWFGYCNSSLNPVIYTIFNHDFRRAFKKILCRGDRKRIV

α2AR [8] = biological target: T2, α2AR; details: agonist mode; CHO-K1 cells
rat α2AR [9] = biological target: T9, rat α2AR; details: agonist mode; HEK293 cells; Figure S2
α1A and α1BR = details: read-out: EC50, α1A and α1BR-pERK; a recent report; cited from earlier work
[10] = system: pERK in nontransfected HEK293 cells; assay: ERK phosphorylation in nontransfected, knockout and antagonist-cotreated HEK293 cells; type: cell-based, human; details: for pERK-stimulating effect with 100 nM atipamezole cotreatment / pERK-stimulating effect with 100 nM prazosin cotreatment: HEK293; for pERK-stimulating effect with 100 nM prazosin cotreatment: CLON and ISO 1 μM, mitragynine 1 μM; for pERK, nontransfected HEK293: concentration not given
Description: (§3) Cells were serum-starved for 75 min and treated with ligands in 1 mL of fresh DMEM in the absence of serum as described in the figure legends. Cells were washed three times with ice-cold phosphate-buffered saline, lysed on ice in Radio-Immunoprecipitation Assay buffer, centrifuged to clarify the supernatant, normalized to protein concentration, and boiled in Laemmli sample buffer. Following sodium dodecyl sulfate–polyacrylamide gel electrophoresis, gels were transferred, blocked in 5% BSA and incubated with 1:1000 rabbit phospho-ERK1/2 (#9101, Cell Signaling Technology, Danvers, MA) and imaged with enhanced chemiluminescence (ECL). Blots were stripped and reprobed with rabbit ERK1/2 (#9102, Cell Signaling Technology) antibody and imaged with ECL to assess protein loading.

[11] = system: pERK in HEK293 cells transfected with human α2ARs; assay: ERK phosphorylation in α2AR-transfected HEK293 cells; type: cell-based; details: 1 μM, 5 min
Description: as §3

COX2 = biological target: T10, COX2 (Homo sapiens, UniProt P35354); assay: Eurofins Cerep enzyme inhibition screen; type: biochemical; details: 10 μM
T10 construct: Eurofins Cerep
T10 sequence (P35354 18-604): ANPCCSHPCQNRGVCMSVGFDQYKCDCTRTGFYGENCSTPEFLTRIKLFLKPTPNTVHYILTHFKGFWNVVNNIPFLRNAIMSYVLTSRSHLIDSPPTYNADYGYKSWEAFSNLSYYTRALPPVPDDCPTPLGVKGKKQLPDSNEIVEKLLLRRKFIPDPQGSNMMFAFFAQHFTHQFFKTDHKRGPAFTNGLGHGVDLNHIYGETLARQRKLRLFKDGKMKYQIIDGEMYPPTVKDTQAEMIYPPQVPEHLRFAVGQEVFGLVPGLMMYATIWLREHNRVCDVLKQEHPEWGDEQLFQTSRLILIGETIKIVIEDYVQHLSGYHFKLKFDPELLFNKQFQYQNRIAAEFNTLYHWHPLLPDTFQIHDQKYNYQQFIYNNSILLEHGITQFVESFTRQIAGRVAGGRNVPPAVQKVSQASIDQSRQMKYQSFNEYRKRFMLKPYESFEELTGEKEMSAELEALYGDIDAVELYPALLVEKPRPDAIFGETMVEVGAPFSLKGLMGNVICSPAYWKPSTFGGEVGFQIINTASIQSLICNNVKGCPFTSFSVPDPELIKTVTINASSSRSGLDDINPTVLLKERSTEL
Description: as §2

serotonin transporter = biological target: T11, serotonin transporter (Homo sapiens, UniProt P31645); assay: Eurofins Cerep radioligand binding screen; details: 10 μM
T11 construct: Eurofins Cerep; host or cells: cell membrane homogenates
T11 sequence (P31645 whole entry): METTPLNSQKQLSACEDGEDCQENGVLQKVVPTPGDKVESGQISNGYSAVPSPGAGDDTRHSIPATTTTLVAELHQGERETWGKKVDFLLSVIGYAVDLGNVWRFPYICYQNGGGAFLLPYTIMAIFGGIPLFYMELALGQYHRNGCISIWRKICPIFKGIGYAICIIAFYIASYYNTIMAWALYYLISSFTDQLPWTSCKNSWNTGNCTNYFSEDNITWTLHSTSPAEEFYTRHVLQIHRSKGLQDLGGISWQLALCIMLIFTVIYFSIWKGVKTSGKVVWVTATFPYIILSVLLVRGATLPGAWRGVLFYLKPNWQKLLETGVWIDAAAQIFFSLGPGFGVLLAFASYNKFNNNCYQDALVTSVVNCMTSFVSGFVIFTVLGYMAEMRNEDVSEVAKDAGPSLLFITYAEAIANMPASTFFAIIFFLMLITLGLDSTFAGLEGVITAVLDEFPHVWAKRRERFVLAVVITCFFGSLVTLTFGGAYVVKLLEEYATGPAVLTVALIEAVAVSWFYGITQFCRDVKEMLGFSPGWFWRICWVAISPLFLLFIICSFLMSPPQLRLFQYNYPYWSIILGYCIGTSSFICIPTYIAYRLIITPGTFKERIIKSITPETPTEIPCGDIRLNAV
Description: as §1

[12] = system: voltage-gated sodium channels; assay: Eurofins Cerep radioligand binding screen; details: 10 μM
Description: as §1

[13] = HEK293, read-out: Emax as percent of clonidine's maximum response, α11
[14] = HEK293, read-out: Emax as percent of clonidine's maximum response, αq

CC(Oc1c(Cl)cccc1Cl)C1=NCCN1 (stereo not shown) [lofexidine]
EC50 (α1AR [1]; EC50, α11, α1AR-Gα11): 112 nM | EC50 (α1AR [1]; EC50, αq, α1AR-Gαq): 95.5 nM | Emax (α1AR [1]; [13]): 76% | Emax (α1AR [1]; [14]): 84%

CCC1(c2cnc[nH]2)Cc2ccccc2C1 [atipamezole]
Kd (human α1Rs; read-out: Affinity (Kd) at each of the α1Rs): ≥ 1000 nM | Affinity (Kd) at each of the human α2Rs (human α2Rs): double-digit nM | Kd (β1 and β2 adrenoceptors): > 30000 nM | β-arrestin2 recruitment, agonist mode (α2AR [2]): did not recruit β-arrestin2 | Kb (α2AR [3]): 6.92 nM

CC[C@@H]1CN2CC[C@@]3(O)C(=Nc4cccc(OC)c43)[C@@H]2C[C@@H]1/C(=C\OC)C(=O)OC [7-Hydroxymitragynine]
Inhibition of specific radioligand binding, α1B (α1BR): less than 15% | Inhibition of specific radioligand binding, α2B (α2BR): less than 15% | Inhibition of radioligand binding, δ-opioid receptors (δ-opioid receptors): more than 50% | Inhibition of radioligand binding, μ-opioid receptors (μ-opioid receptors): more than 50% | Inhibition of radioligand binding, κ-opioid receptors (κ-opioid receptors): more than 50% | Inhibition of specific radioligand binding, α1D (α1DR): less than 15% | Inhibition of specific radioligand binding, α2A (α2AR [4]): less than 15% | Inhibition of specific radioligand binding, α1A (α1AR [5]): less than 15% | Inhibition of the activity of enzymes tested (any enzyme tested): did not inhibit the activity of any enzyme tested

Clc1cccc(Cl)c1N=C1NCCN1 [clonidine]
Activation of Gαq or Gα11 via α2ARs (α2AR [6]): no effect | Effect on forskolin-stimulated cAMP, rat α2AR (rat α2AR [7]): agonist | Effect on forskolin-stimulated cAMP, human α2AR (α2AR [8]): decreased forskolin-stimulated cAMP production | Effect on forskolin-induced cAMP, rat α2AR in HEK293 (rat α2AR [9]): attenuated forskolin-induced cAMP production | EC50 (α1A and α1BR): < 100 nM | pERK-stimulating effect in Gαq/11 knockout HEK293 cells ([10]; 1 μM, 5 min, vs CRISPR scrambled): abolished | pERK-stimulating effect with 100 nM atipamezole cotreatment [10]: did not affect | pERK-stimulating effect with 100 nM prazosin cotreatment [10]: abolished | Emax (α1AR [1]; [13]): 100% | Emax (α1AR [1]; [14]): 100%

CNC[C@H](O)c1cccc(O)c1 [phenylephrine]
pERK, nontransfected HEK293 [10]: robust increases in pERK

COc1cc2nc(N3CCN(C(=O)c4ccco4)CC3)nc(N)c2cc1OC [Prazosin, prazosin]
Affinity (Kd) at each of the α1Rs (human α1Rs): single-digit nM or higher affinity | Kd (human α2Rs; read-out: Affinity (Kd) at each of the human α2Rs): ≥ 300 nM | Kd (β1 and β2 adrenoceptors): ≥ 8000 nM

CC(C)NCC(O)c1ccc(O)c(O)c1 (stereo not shown) [isoproterenol]
pERK relative to buffer, α2AR-transfected HEK293 [11]: significantly increased pERK | pERK relative to buffer, nontransfected HEK293 ([10]; 1 μM, 5 min): stimulated pERK | pERK-stimulating effect with 100 nM atipamezole cotreatment [10]: not affected | pERK-stimulating effect with 100 nM prazosin cotreatment [10]: not affected

Brc1c(NC2=NCCN2)ccc2nccnc12 [UK 14, 304 (brimonidine), brimonidine, reference compound]
β-arrestin2 recruitment, agonist mode (α2AR [2]): robust α2AR-β-arrestin2 recruitment | pERK, nontransfected HEK293 [10]: did not increase pERK

CNC[C@H](O)c1ccc(O)c(O)c1 [epinephrine]
Emax (α1AR [1]; [13]): 279%

CC[C@@H]1CN2CCc3c([nH]c4cccc(O)c34)[C@@H]2C[C@@H]1/C(=C\OC)C(=O)OC [9-Hydroxycorynantheidine]
Inhibition of COX2 (COX2): > 70% | Inhibition of radioligand binding, serotonin transporter (serotonin transporter): ~58% | Inhibition of radioligand binding, voltage-gated sodium channels [12]: ~57% | Inhibition of specific radioligand binding, α2B (α2BR): less than 25% | Inhibition of specific radioligand binding, α1D (α1DR): more than 60% | Inhibition of specific radioligand binding, α2A (α2AR [4]): less than 25% | Inhibition of specific radioligand binding, α1A (α1AR [5]): more than 60%
